Reference: patent USRE47193E1, “Selectively substituted quinoline compounds” (EISAI R&D MANAGEMENT CO., LTD., priority 2013, dated 2019)

Target: T1, mouse TLR7 (Mus musculus, UniProt P58681)
T1 sequence (P58681 27-1050): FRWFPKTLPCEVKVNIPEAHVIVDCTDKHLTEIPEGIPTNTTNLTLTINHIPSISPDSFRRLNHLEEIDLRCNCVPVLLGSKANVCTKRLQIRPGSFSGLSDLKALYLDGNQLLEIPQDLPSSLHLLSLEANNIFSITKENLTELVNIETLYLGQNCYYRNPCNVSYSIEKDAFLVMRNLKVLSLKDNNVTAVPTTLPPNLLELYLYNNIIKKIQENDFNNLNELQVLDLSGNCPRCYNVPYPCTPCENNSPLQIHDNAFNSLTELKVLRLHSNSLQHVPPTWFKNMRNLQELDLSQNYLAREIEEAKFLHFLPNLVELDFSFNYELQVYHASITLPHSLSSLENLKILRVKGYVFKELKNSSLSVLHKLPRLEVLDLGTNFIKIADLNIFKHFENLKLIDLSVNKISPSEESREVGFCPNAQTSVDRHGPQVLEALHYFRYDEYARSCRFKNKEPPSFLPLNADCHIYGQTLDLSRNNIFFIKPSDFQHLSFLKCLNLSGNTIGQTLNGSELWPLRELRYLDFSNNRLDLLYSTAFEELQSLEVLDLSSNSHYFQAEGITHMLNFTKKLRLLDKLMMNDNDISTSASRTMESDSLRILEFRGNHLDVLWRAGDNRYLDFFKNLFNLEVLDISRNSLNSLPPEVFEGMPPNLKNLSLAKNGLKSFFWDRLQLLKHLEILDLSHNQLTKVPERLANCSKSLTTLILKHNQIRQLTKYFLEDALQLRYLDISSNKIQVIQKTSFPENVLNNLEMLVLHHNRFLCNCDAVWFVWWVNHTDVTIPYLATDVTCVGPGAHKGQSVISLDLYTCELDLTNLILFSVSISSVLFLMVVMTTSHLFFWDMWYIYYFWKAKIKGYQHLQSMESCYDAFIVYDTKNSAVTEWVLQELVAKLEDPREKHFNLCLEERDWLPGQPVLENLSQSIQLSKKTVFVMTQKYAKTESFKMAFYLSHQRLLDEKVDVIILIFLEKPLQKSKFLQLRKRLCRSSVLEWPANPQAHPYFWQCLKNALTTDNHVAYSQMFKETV
Assay: Short-term in vivo (STIV) assay: oral dosing, R848 s.c., plasma IL-6
Design: female BALB/c mice (Jackson Labs, Bar Harbor, Me.) were dosed by oral gavage; tissue Jackson Labs; host or cells: living female BALB/c mice; plasma IL-6 after s.c. R848
How it was run: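 Female BALB/c mice (6–8 weeks) dosed orally with compound in 0.5% aqueous methyl-cellulose at 33, 100 or 300 mg/kg; at various times afterwards given 15 ug R848 s.c. to stimulate TLR7. Plasma IL-6 measured by ELISA to gauge potency and duration of action.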

SMILES | % Suppression vs. Vehicle (3 h, 33 mg/kg) [%] | % Suppression vs. Vehicle (3 h, 100 mg/kg) [%] | % Suppression vs. Vehicle (6 h, 33 mg/kg) [%] | % Suppression vs. Vehicle (6 h, 100 mg/kg) [%] | % Suppression vs. Vehicle (19 h, 11 mg/kg) [%] | % Suppression vs. Vehicle (19 h, 33 mg/kg) [%] | % Suppression vs. Vehicle (19 h, 100 mg/kg) [%] | % Suppression vs. Vehicle (6 h, 300 mg/kg) [%] | % Suppression vs. Vehicle (19 h, 300 mg/kg) [%] | further results
C[C@@H]1CN(c2ccc(C#N)c3ncccc23)C[C@H](CNC2CCCC2)O1 [ER-887145] | 97 | 99 | 91 | 99 | 0 | 0 | 96 | – | – | % Suppression vs. Vehicle (3 h after oral dose, 11 mg/kg): 67%; % Suppression vs. Vehicle (6 h, 11 mg/kg): 32%
CC1CN(c2ccc(C#N)c3ncccc23)CC(CN2CCCC2CO)O1 (stereo not drawn) [ER-886814] | 93 | 100 | 57 | 100 | – | 14 | 19 | 100 | 100 | % Suppression vs. Vehicle (3 h, 300 mg/kg): 100%
C[C@@H]1CN(c2ccc(C#N)c3ncccc23)C[C@H](CN2CCC(O)CC2)O1 [ER-886953] | 99 | 99 | 99 | 99 | – | 23 | 45 | 99 | 99 | % Suppression vs. Vehicle (3 h, 300 mg/kg): 99%
C[C@@H]1CN(C[C@H]2CN(c3ccc(C#N)c4ncccc34)C[C@@H](C)O2)CCN1 [ER-887269] | – | – | 95 | 100 | – | 9 | 58 | 98 | 95 | –
C[C@@H]1CN(c2ccc(C#N)c3ncccc23)C[C@H](CN2CCC(N3CCCCC3)CC2)O1 [ER-887927, 5-((2S,6R)-2-([1,4′-bipiperidin]-1′-ylmethyl)-6-methylmorpholino)quinoline-8-carbonitrile] | – | – | 100 | 100 | 94 | 98 | 100 | 100 | 100 | % Suppression vs. Vehicle (19 h, 1.22 mg/kg): 56%; % Suppression vs. Vehicle (19 h, 3.67 mg/kg): 70%
CC1CN(c2ccc(C#N)c3ncccc23)CC(CN2CCN(C)CC2C)O1 (stereo not drawn) [ER-889556] | 100 | 100 | 100 | 100 | 29 | 47 | 98 | – | – | % Suppression vs. Vehicle (19 h, 1.22 mg/kg): 44%; % Suppression vs. Vehicle (19 h, 3.67 mg/kg): 89%
CC1CN(c2ccc(C#N)c3ncccc23)CC(CN2CCC(NC(=O)C(C)C)CC2)O1 (stereo not drawn) [ER-889745] | – | 93 | 94 | 84 | – | 0 | 52 | – | – | % Suppression vs. Vehicle (13 h, 33 mg/kg): 0%; % Suppression vs. Vehicle (13 h, 100 mg/kg): 99%; % Suppression vs. Vehicle (13 h, 300 mg/kg): 95%; % Suppression vs. Vehicle (24 h, 33 mg/kg): 0%; % Suppression vs. Vehicle (24 h, 100 mg/kg): 64%; % Suppression vs. Vehicle (24 h, 300 mg/kg): 100%
C[C@@H]1CN(c2ccc(C#N)c3ncccc23)C[C@H](CO)O1 [ER-885493, 5-((2R,6R)-2-(hydroxymethyl)-6-methylmorpholino)quinoline-8-carbonitrile] | – | – | – | – | – | – | – | – | – | % Suppression vs. Vehicle (3 h, 22 mg/kg): 39%; % Suppression vs. Vehicle (3 h, 67 mg/kg): 86%; % Suppression vs. Vehicle (3 h, 200 mg/kg): 88%; % Suppression vs. Vehicle (5 h, 22 mg/kg): 26%; % Suppression vs. Vehicle (5 h, 67 mg/kg): 99%; % Suppression vs. Vehicle (5 h, 200 mg/kg): 94%; % Suppression vs. Vehicle (12 h, 400 mg/kg): 76%; % Suppression vs. Vehicle (18 h, 22 mg/kg): 0%; % Suppression vs. Vehicle (18 h, 67 mg/kg): 5%; % Suppression vs. Vehicle (18 h, 200 mg/kg): 29%
